Laboratory results published in publication PMC11876601 (Molecular Systems Biology, 2025).
Where “and” joins values, the source holds several entries; their conditions need not be identical. Equal values may be shown once. Read-outs that look alike come from different tables or passages of the source.

Tested on: AsPC-1 cells
Test: Cell proliferation assay, chemodrug + ATR inhibitor (Incucyte confluence, 72 h);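 also: underlying read-out for every value is AsPC-1 confluence after 72 h incubation at 37 °C and 5% CO2, divided by that well's starting confluence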
Conditions: for Curve bottom / Curve slope / Curve top / EC50 / pEC50: AsPC-1; for Ratio: Response / Response vehicle (mean)
[1] = Experiment GEM (no ATRi), single replicates R1-R3
[2] = Experiment GEM+ATRi_dose1, single replicates R1-R3
[3] = Experiment GEM+ATRi_dose2, single replicates R1-R3
[4] = Experiment GEM+ATRi_dose3, single replicates R1-R3
[5] = Drug 0 nM + ATRi 3 nM (ATRi alone, GEM+ATRi_dose1 series), replicates R1-R3
[6] = Drug 0 nM + ATRi 10 nM (ATRi alone, GEM+ATRi_dose2 series), replicates R1-R3
[7] = Drug 0 nM + ATRi 30 nM (ATRi alone, GEM+ATRi_dose3 series), replicates R1-R3
[8] = Drug 1 nM + ATRi 3 nM (GEM+ATRi_dose1), replicates R1-R3
[9] = Drug 1 nM + ATRi 10 nM (GEM+ATRi_dose2), replicates R1-R3
[10] = Drug 1 nM + ATRi 30 nM (GEM+ATRi_dose3), replicates R1-R3
[11] = Drug 1 nM alone, ATRi 0 nM (experiment 'GEM'), replicates R1-R3
[12] = Drug 3 nM + ATRi 3 nM (GEM+ATRi_dose1), replicates R1-R3
[13] = Drug 3 nM + ATRi 10 nM (GEM+ATRi_dose2), replicates R1-R3
[14] = Drug 3 nM + ATRi 30 nM (GEM+ATRi_dose3), replicates R1-R3
[15] = Drug 3 nM alone, ATRi 0 nM (experiment 'GEM'), replicates R1-R3
[16] = Drug 10 nM + ATRi 3 nM (GEM+ATRi_dose1), replicates R1-R3
[17] = Drug 10 nM + ATRi 10 nM (GEM+ATRi_dose2), replicates R1-R3
[18] = Drug 10 nM + ATRi 30 nM (GEM+ATRi_dose3), replicates R1-R3
[19] = Drug 10 nM alone, ATRi 0 nM (experiment 'GEM'), replicates R1-R3
[20] = Drug 30 nM + ATRi 3 nM (GEM+ATRi_dose1), replicates R1-R3
[21] = Drug 30 nM + ATRi 10 nM (GEM+ATRi_dose2), replicates R1-R3
[22] = Drug 30 nM + ATRi 30 nM (GEM+ATRi_dose3), replicates R1-R3
[23] = Drug 30 nM alone, ATRi 0 nM (experiment 'GEM'), replicates R1-R3
[24] = Drug 100 nM + ATRi 3 nM (GEM+ATRi_dose1), replicates R1-R3
[25] = Drug 100 nM + ATRi 10 nM (GEM+ATRi_dose2), replicates R1-R3
[26] = Drug 100 nM + ATRi 30 nM (GEM+ATRi_dose3), replicates R1-R3
[27] = Drug 100 nM alone, ATRi 0 nM (experiment 'GEM'), replicates R1-R3
[28] = Drug 300 nM + ATRi 3 nM (GEM+ATRi_dose1), replicates R1-R3
[29] = Drug 300 nM + ATRi 10 nM (GEM+ATRi_dose2), replicates R1-R3
[30] = Drug 300 nM + ATRi 30 nM (GEM+ATRi_dose3), replicates R1-R3
[31] = Drug 300 nM alone, ATRi 0 nM (experiment 'GEM'), replicates R1-R3
[32] = Drug 1000 nM + ATRi 3 nM (GEM+ATRi_dose1), replicates R1-R3
[33] = Drug 1000 nM + ATRi 10 nM (GEM+ATRi_dose2), replicates R1-R3
[34] = Drug 1000 nM + ATRi 30 nM (GEM+ATRi_dose3), replicates R1-R3
[35] = Drug 1000 nM alone, ATRi 0 nM (experiment 'GEM'), replicates R1-R3
[36] = Drug 3000 nM + ATRi 3 nM (GEM+ATRi_dose1), replicates R1-R3
[37] = Drug 3000 nM + ATRi 10 nM (GEM+ATRi_dose2), replicates R1-R3
[38] = Drug 3000 nM + ATRi 30 nM (GEM+ATRi_dose3), replicates R1-R3
[39] = Drug 3000 nM alone, ATRi 0 nM (experiment 'GEM'), replicates R1-R3
[40] = chemodrug 30 nM alone (ATRi 0 nM)
[41] = chemodrug 100 nM alone (ATRi 0 nM)
[42] = chemodrug 300 nM alone (ATRi 0 nM)
[43] = chemodrug 1000 nM alone (ATRi 0 nM)
[44] = chemodrug 3000 nM alone (ATRi 0 nM)

Procedure: Cells were seeded at 5000 cells/well into 96-well flat bottom plates (Eppendorf) and allowed to attach overnight. […] Cells were incubated for 72 h at 37 °C and 5% CO2. Cell confluence readouts at 72 h were either normalized to their initial confluence using the Incucyte software (AsPC-1) or used without prior normalization (all others). […] Each experiment was performed in triplicates, the data was plotted as mean ± standard deviation (s.d.).

N.N.[Cl][Pt][Cl] [Cisplatin]
Curve bottom [1]: 1.04 and 1.01 and 1.00
Curve slope [1]: 1.30 and 2.18 and 1.82
Curve top [1]: 0.20 and 0.35 and 0.27
EC50 [1]: 513 nM and 218 nM and 302 nM
pEC50 [1]: 6.29 and 6.66 and 6.52
Curve bottom [2]: 1.05 and 1.02 and 1.03
Curve slope [2]: 1.41 and 1.64 and 1.76
Curve top [2]: 0.25 and 0.33 and 0.27
EC50 [2]: 172 nM and 118 nM and 151 nM
pEC50 [2]: 6.76 and 6.93 and 6.82
Curve bottom [3]: 1.03 and 1.00 and 1.02
Curve slope [3]: 1.60 and 1.79 and 1.21
Curve top [3]: 0.28 and 0.31 and 0.26
EC50 [3]: 36.4 nM and 34.9 nM and 37.1 nM
pEC50 [3]: 7.44 and 7.46 and 7.43
Curve bottom [4]: 0.90 and 0.95 and 0.88
Curve slope [4]: 0.65 and 0.81 and 0.69
Curve top [4]: 0.22 and 0.29 and 0.23
EC50 [4]: 6.62 nM and 4.98 nM and 7.67 nM
pEC50 [4]: 8.18 and 8.30 and 8.12
Response [5]: 86.95 and 90.22 and 92.73
Response [6]: 86.95 and 90.22
Response [7]: 75.87 and 84.36
Response [8]: 87.64 and 91.58 and 92.37
Response [9]: 86.97 and 90.31
Response [10]: 68.28 and 77.94
Response [11]: 87.69 and 92.23
Response [12]: 91.78 and 94.40 and 93.95
Response [13]: 85.95 and 90.04
Response [14]: 52.30 and 58.04
Response [15]: 89.38 and 90.87
Response [16]: 89.09 and 93.32 and 91.50
Response [17]: 81.41 and 84.65
Response [18]: 41.30 and 46.95
Response [19]: 87.15 and 91.05
Response [20]: 84.14 and 83.47 and 86.69
Response [21]: 60.15 and 63.62
Response [22]: 36.88 and 38.31
Response [23]: 87.92 and 89.82
Response [24]: 67.31 and 66.59 and 71.27
Response [25]: 33.79 and 36.06
Response [26]: 30.17 and 37.05
Response [27]: 79.92 and 81.64
Response [28]: 43.01 and 39.79 and 38.91
Response [29]: 30.09 and 31.69
Response [30]: 22.83 and 27.53
Response [31]: 65.38 and 51.74
Response [32]: 27.32 and 30.30 and 27.51
Response [33]: 23.88 and 28.00
Response [34]: 20.74 and 24.11
Response [35]: 37.94 and 32.34
Response [36]: 22.35 and 31.11 and 24.18
Response [37]: 21.92 and 27.23 and 22.65
Response [38]: 19.23 and 26.92
Response [39]: 23.81 and 32.93
Ratio [5]: 1.02 and 1.00 and 1.03
Ratio [6]: 1.02 and 1.00
Ratio [7]: 0.89 and 0.93
Ratio [8]: 1.03 and 1.01 and 1.02
Ratio [9]: 1.02 and 1.00
Ratio [10]: 0.80 and 0.86
Ratio [11]: 1.03 and 1.02
Ratio [12]: 1.08 and 1.04
Ratio [13]: 1.01 and 1.00
Ratio [14]: 0.61 and 0.64
Ratio [15]: 1.05 and 1.00
Ratio [16]: 1.05 and 1.03 and 1.01
Ratio [17]: 0.96 and 0.94
Ratio [18]: 0.49 and 0.52
Ratio [19]: 1.02 and 1.01
Ratio [20]: 0.99 and 0.92 and 0.96
Ratio [21]: 0.71 and 0.70
Ratio [22]: 0.43 and 0.42
Ratio [23]: 1.03 and 0.99
Ratio [24]: 0.79 and 0.74
Ratio [25]: 0.40
Ratio [26]: 0.35 and 0.41
Ratio [27]: 0.94 and 0.90
Ratio [28]: 0.51 and 0.44 and 0.43
Ratio [29]: 0.35
Ratio [30]: 0.27 and 0.30
Ratio [31]: 0.77 and 0.57
Ratio [32]: 0.32 and 0.34 and 0.31
Ratio [33]: 0.28 and 0.31
Ratio [34]: 0.24 and 0.27
Ratio [35]: 0.45 and 0.36
Ratio [36]: 0.26 and 0.34 and 0.27
Ratio [37]: 0.26 and 0.30 and 0.25
Ratio [38]: 0.23 and 0.30
Ratio [39]: 0.28 and 0.36
Ratio (Response / Response vehicle (mean)) (chemodrug 1 nM + ATRi 10 nM): 1.00
Response (chemodrug 1 nM + ATRi 10 nM): 89.91
Ratio (Response / Response vehicle (mean)) (chemodrug 1 nM + ATRi 30 nM): 0.80
Response (chemodrug 1 nM + ATRi 30 nM): 71.79
Ratio (Response / Response vehicle (mean)) (chemodrug 1 nM alone (ATRi 0 nM)): 1.02
Ratio (Response / Response vehicle (mean)) (chemodrug 3 nM + ATRi 10 nM): 0.99
Response (chemodrug 3 nM + ATRi 10 nM): 89.48
Ratio (Response / Response vehicle (mean)) (chemodrug 3 nM + ATRi 30 nM): 0.63
Response (chemodrug 3 nM + ATRi 30 nM): 57.06
Ratio (Response / Response vehicle (mean)) (chemodrug 3 nM alone (ATRi 0 nM)): 1.00
Ratio (Response / Response vehicle (mean)) (chemodrug 10 nM + ATRi 10 nM): 0.89
Response (chemodrug 10 nM + ATRi 10 nM): 80.53
Ratio (Response / Response vehicle (mean)) (chemodrug 10 nM + ATRi 30 nM): 0.51
Response (chemodrug 10 nM + ATRi 30 nM): 45.87
Ratio (Response / Response vehicle (mean)) (chemodrug 10 nM alone (ATRi 0 nM)): 0.99
Ratio (Response / Response vehicle (mean)) (chemodrug 30 nM + ATRi 10 nM): 0.69
Response (chemodrug 30 nM + ATRi 10 nM): 62.02
Ratio (Response / Response vehicle (mean)) (chemodrug 30 nM + ATRi 30 nM): 0.43
Response (chemodrug 30 nM + ATRi 30 nM): 38.92
Ratio (Response / Response vehicle (mean)) [40]: 1.03
Response [40]: 92.93
Ratio (Response / Response vehicle (mean)) (chemodrug 100 nM + ATRi 10 nM): 0.43
Response (chemodrug 100 nM + ATRi 10 nM): 39.16
Ratio (Response / Response vehicle (mean)) (chemodrug 100 nM + ATRi 30 nM): 0.35
Response (chemodrug 100 nM + ATRi 30 nM): 31.50
Ratio (Response / Response vehicle (mean)) [41]: 0.90
Response [41]: 81.28
Ratio (Response / Response vehicle (mean)) (chemodrug 300 nM + ATRi 10 nM): 0.31
Response (chemodrug 300 nM + ATRi 10 nM): 28.30
Ratio (Response / Response vehicle (mean)) (chemodrug 300 nM + ATRi 30 nM): 0.27
Response (chemodrug 300 nM + ATRi 30 nM): 23.96
Ratio (Response / Response vehicle (mean)) [42]: 0.65
Response [42]: 58.52
Ratio (Response / Response vehicle (mean)) (chemodrug 1000 nM + ATRi 10 nM): 0.29
Response (chemodrug 1000 nM + ATRi 10 nM): 25.88
Ratio (Response / Response vehicle (mean)) (chemodrug 1000 nM + ATRi 30 nM): 0.26
Response (chemodrug 1000 nM + ATRi 30 nM): 23.54
Ratio (Response / Response vehicle (mean)) [43]: 0.34
Response [43]: 30.70
Ratio (Response / Response vehicle (mean)) (chemodrug 3000 nM + ATRi 30 nM): 0.23
Response (chemodrug 3000 nM + ATRi 30 nM): 20.88
Ratio (Response / Response vehicle (mean)) [44]: 0.29
Response [44]: 26.17
sensitization of AsPC-1 cells to the chemodrug by Elimusertib (chemodrug + three sub-EC50 doses of Elimusertib): sensitized
EC50 (read-out: EC50 mean, Experiment GEM (no ATRi), mean of R1-R3, repeated in each replicate line): 344 nM
EC50 (read-out: EC50 mean, Experiment GEM+ATRi_dose1, mean of R1-R3, repeated in each replicate line): 147 nM
EC50 (read-out: EC50 mean, Experiment GEM+ATRi_dose2, mean of R1-R3, repeated in each replicate line): 36.1 nM
EC50 (read-out: EC50 mean, Experiment GEM+ATRi_dose3, mean of R1-R3, repeated in each replicate line): 6.42 nM
